Assay results reported in ChEMBL document CHEMBL3351989, “Structure-activity relationship and interaction studies of new SIRT1 inhibitors with the scaffold of 3-(furan-2-yl)-[1,2,4]triazolo[3,4-b][1,3,4]thiadiazole” (Bioorg Med Chem Lett, 2014).

Tests used:
[1] = molecular target: T1, NAD-dependent protein deacetylase sirtuin-1 (Homo sapiens, UniProt Q96EB6); assay: Inhibition of hexa-His-tagged recombinant human SIRT1 expressed in Escherichia coli BL21(DE3) using AMC-labeled Arg-His-Lys-Lys(ac) as substrate assessed as inhibition of deacetylation of peptide after 45 mins by fluorescence assay
T1 sequence (Q96EB6 whole entry): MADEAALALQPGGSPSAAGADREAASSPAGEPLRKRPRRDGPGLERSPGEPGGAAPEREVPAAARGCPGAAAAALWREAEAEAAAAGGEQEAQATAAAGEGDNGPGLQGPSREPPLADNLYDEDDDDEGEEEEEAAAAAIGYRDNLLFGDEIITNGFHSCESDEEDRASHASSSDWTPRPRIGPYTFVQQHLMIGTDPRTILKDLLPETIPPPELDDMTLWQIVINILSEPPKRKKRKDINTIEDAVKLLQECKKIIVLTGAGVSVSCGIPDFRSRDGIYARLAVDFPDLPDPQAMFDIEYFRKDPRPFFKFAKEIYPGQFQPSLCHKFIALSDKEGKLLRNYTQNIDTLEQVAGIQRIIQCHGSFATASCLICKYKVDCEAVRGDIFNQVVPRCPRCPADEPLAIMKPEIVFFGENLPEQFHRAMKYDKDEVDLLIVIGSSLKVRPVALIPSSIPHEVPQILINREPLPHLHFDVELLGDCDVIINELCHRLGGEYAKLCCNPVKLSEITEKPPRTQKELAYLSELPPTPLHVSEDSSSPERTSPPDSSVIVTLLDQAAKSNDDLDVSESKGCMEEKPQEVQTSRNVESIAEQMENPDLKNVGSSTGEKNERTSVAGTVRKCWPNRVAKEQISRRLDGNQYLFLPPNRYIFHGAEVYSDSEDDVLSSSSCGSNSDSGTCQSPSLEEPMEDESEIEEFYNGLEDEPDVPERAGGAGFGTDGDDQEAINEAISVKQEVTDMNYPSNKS

[2] = molecular target: T2, NAD-dependent protein deacetylase sirtuin-1 (Homo sapiens) (UniProt Q96EB6); assay: Inhibition of SIRT1-mediated deacetylation of p53 in human MCF7 cells at 1.2 to 100 uM after 6 hrs by Western blotting; format: cell-based
T2 sequence (whole entry): T1 sequence (Q96EB6 whole entry)

[3] = molecular target: T3, NAD-dependent protein deacetylase sirtuin-1 (Homo sapiens, UniProt Q96EB6, I347A); assay: Inhibition of human SIRT1 I347A mutant expressed in Escherichia coli BL21(DE3) using AMC-labeled Arg-His-Lys-Lys(ac) as substrate assessed as inhibition of deacetylation of peptide after 45 mins by Lineweaver-Burke plot method
[4] = molecular target: T3, NAD-dependent protein deacetylase sirtuin-1; assay: Inhibition of human SIRT1 I347A mutant expressed in Escherichia coli BL21(DE3) using AMC-labeled Arg-His-Lys-Lys(ac) as substrate assessed as inhibition of deacetylation of peptide after 45 mins by fluorescence assay
[5] = molecular target: T4, NAD-dependent protein deacetylase sirtuin-1 (Homo sapiens, UniProt Q96EB6, F273L); assay: Inhibition of human SIRT1 F273L mutant expressed in Escherichia coli BL21(DE3) using AMC-labeled Arg-His-Lys-Lys(ac) as substrate assessed as inhibition of deacetylation of peptide after 45 mins by fluorescence assay
[6] = molecular target: T1, NAD-dependent protein deacetylase sirtuin-1; assay: Inhibition of hexa-His-tagged recombinant human SIRT1 expressed in Escherichia coli BL21(DE3) using AMC-labeled Arg-His-Lys-Lys(ac) as substrate assessed as inhibition of deacetylation of peptide after 45 mins by Lineweaver-Burke plot method
[7] = molecular target: T4, NAD-dependent protein deacetylase sirtuin-1; assay: Inhibition of human SIRT1 F273L mutant expressed in Escherichia coli BL21(DE3) using AMC-labeled Arg-His-Lys-Lys(ac) as substrate assessed as inhibition of deacetylation of peptide after 45 mins by Lineweaver-Burke plot method
[8] = molecular target: T5, NAD-dependent protein deacetylase sirtuin-1 (Homo sapiens, UniProt Q96EB6, F414A); assay: Inhibition of human SIRT1 F414A mutant expressed in Escherichia coli BL21(DE3) using AMC-labeled Arg-His-Lys-Lys(ac) as substrate assessed as inhibition of deacetylation of peptide after 45 mins by Lineweaver-Burke plot method
[9] = molecular target: T5, NAD-dependent protein deacetylase sirtuin-1; assay: Inhibition of human SIRT1 F414A mutant expressed in Escherichia coli BL21(DE3) using AMC-labeled Arg-His-Lys-Lys(ac) as substrate assessed as inhibition of deacetylation of peptide after 45 mins by fluorescence assay

T3 sequence (Q96EB6 2-747 I347A limits assumed): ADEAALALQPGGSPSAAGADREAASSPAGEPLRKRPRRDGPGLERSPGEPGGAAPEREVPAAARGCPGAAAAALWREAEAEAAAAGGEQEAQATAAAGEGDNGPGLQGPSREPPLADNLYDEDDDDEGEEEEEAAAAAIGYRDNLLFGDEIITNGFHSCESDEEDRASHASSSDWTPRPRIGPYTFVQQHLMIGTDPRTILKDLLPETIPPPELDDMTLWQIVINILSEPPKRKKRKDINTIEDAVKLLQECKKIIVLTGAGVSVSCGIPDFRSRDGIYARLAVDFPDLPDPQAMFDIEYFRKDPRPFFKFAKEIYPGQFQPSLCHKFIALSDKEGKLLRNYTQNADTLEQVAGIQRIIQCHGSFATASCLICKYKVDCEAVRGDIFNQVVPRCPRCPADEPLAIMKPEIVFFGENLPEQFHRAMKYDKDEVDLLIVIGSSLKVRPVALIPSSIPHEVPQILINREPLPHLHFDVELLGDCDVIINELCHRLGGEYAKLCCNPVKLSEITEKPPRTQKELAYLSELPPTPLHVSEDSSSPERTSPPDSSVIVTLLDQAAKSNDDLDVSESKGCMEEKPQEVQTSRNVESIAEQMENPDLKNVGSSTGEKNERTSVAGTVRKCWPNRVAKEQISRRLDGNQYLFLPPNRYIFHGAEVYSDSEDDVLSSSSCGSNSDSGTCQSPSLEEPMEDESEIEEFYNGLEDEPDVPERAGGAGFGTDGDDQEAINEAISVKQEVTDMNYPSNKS
T5 sequence (Q96EB6 2-747 F414A limits assumed): as the sequence (Q96EB6 2-747 I347A limits assumed) above, with A346I, F413A counted along it
T4 sequence (Q96EB6 2-747 F273L limits assumed): as the sequence (Q96EB6 2-747 I347A limits assumed) above, with F272L, A346I counted along it

| Structure (SMILES) | IC50 [1] | other results |
| --- | --- | --- |
| COc1cc(-c2nn3c(-c4ccco4)nnc3s2)cc(OC)c1OC | 35.6 µM |  |
| COc1cccc(-c2nn3c(-c4ccco4)nnc3s2)c1 | 20.3 µM |  |
| Fc1ccc(-c2ccc(-c3nn4c(-c5ccco5)nnc4s3)o2)cc1 | > 100 µM |  |
| C=CCOc1ccc(-c2nn3c(-c4ccco4)nnc3s2)cc1 | 29.5 µM |  |
| Cc1ccc(OCc2nn3c(-c4ccco4)nnc3s2)cc1C | 28.7 µM |  |
| c1coc(-c2nnc3sc(-c4cccs4)nn23)c1 | 88.6 µM |  |
| Cc1cccc(-c2nn3c(-c4ccco4)nnc3s2)c1 | 7.5 µM |  |
| CC(Oc1ccccc1)c1nn2c(-c3ccco3)nnc2s1 (stereo not drawn) | 67.9 µM |  |
| c1coc(-c2nn3c(-c4ccco4)nnc3s2)c1 | 22 µM |  |
| COc1ccc(Cc2nn3c(-c4ccco4)nnc3s2)cc1OC | 4.1 µM | inhibition [2]: Dose-dependent effect |
| c1ccc(-c2nn3c(-c4ccco4)nnc3s2)nc1 | 3.5 µM | Ki [3]: 39.1 µM; IC50 [4]: 87.9 µM; IC50 [5]: 133 µM; Ki [6]: 0.6 µM; Ki [7]: 58.9 µM; Ki [8]: 24.1 µM; IC50 [9]: 44 µM; inhibition [2]: Dose-dependent effect |
| CCOc1ccccc1OCc1nn2c(-c3ccco3)nnc2s1 | 13.7 µM |  |
| Cc1ccc(-c2nn3c(-c4ccco4)nnc3s2)cc1 | 27.4 µM |  |
| COc1cccc(OCc2nn3c(-c4ccco4)nnc3s2)c1 | 48.4 µM |  |
| c1ccc(OCc2nn3c(-c4ccco4)nnc3s2)cc1 | 61.3 µM |  |
| c1coc(-c2nnc3sc(Cc4ccc5c(c4)OCCO5)nn23)c1 | 67 µM |  |
| c1coc(-c2nnc3sc(-c4cc5ccccc5o4)nn23)c1 | 20.6 µM |  |
| CCC(c1ccccc1)c1nn2c(-c3ccco3)nnc2s1 (stereo not drawn) | 96.2 µM |  |
| c1cncc(-c2nn3c(-c4ccco4)nnc3s2)c1 | 78.8 µM |  |
| Clc1ccc(Cc2nn3c(-c4ccco4)nnc3s2)cc1 | 78 µM |  |
| COc1ccc(OCc2nn3c(-c4ccco4)nnc3s2)cc1 | 41 µM |  |
| c1ccc(CCCc2nn3c(-c4ccco4)nnc3s2)cc1 | 12.2 µM |  |
| Cc1ccc(OCc2nn3c(-c4ccco4)nnc3s2)cc1 | 29.3 µM |  |
| CCOc1cc(-c2nn3c(-c4ccco4)nnc3s2)cc(OCC)c1OCC | 65.7 µM |  |
| CCC(Oc1ccccc1)c1nn2c(-c3ccco3)nnc2s1 (stereo not drawn) | > 100 µM |  |
| c1coc(-c2nnc3sc(-c4cnccn4)nn23)c1 | 66.6 µM |  |

Continued, in another order:

| IC50 [1] | Structure (SMILES) | other results |
| --- | --- | --- |
| 18.8 µM | C=CCOc1cccc(-c2nn3c(-c4ccco4)nnc3s2)c1 |  |
| 24.8 µM | COc1ccc(-c2nn3c(-c4ccco4)nnc3s2)cc1OC |  |
| 19 µM | CCOc1cccc(-c2nn3c(-c4ccco4)nnc3s2)c1 |  |
| 23.6 µM | CCOc1ccccc1-c1nn2c(-c3ccco3)nnc2s1 |  |
| 76.9 µM | COc1ccc(Cc2nn3c(-c4ccco4)nnc3s2)cc1 |  |
| 75.3 µM | Cc1cccc(OCc2nn3c(-c4ccco4)nnc3s2)c1 |  |
| 31.3 µM | CCOc1ccc(-c2nn3c(-c4ccco4)nnc3s2)cc1 |  |
| 37.9 µM | c1ccc(Cc2nn3c(-c4ccco4)nnc3s2)cc1 |  |
| 45.2 µM | c1coc(-c2nnc3sc(-c4ccc5c(c4)OCO5)nn23)c1 |  |
| 18.7 µM | Cc1ccccc1OCc1nn2c(-c3ccco3)nnc2s1 |  |
| 49.8 µM | c1coc(-c2nnc3sc(-c4ccncc4)nn23)c1 |  |
| 27.6 µM | c1ccc(-c2nn3c(-c4ccco4)nnc3s2)cc1 |  |
| 46.7 µM | COc1ccc(-c2nn3c(-c4ccco4)nnc3s2)cc1 |  |
| 51.2 µM | COc1ccccc1OCc1nn2c(-c3ccco3)nnc2s1 |  |
| 40.7 µM | c1coc(-c2nnc3sc(-c4ccc5c(c4)OCCO5)nn23)c1 |  |
| 8.9 µM | c1coc(-c2nnc3sc(C4COc5ccccc5O4)nn23)c1 (stereo not drawn) | inhibition [2]: Dose-dependent effect |
| 47.4 µM | c1ccc(CCc2nn3c(-c4ccco4)nnc3s2)cc1 |  |
